Measurements taken from article PMC5663397, “A composite docking approach for the identification and characterization of ectosteric inhibitors of cathepsin K” (PLoS ONE, 2017).
Values joined by “and” are separate entries in the source; they are usually repeats but may differ in a detail not shown here. Equal values may be shown once. “Also recorded” adds a separate entry of the source. Read-outs that look alike come from different tables or passages of the source.

How the values were obtained:
CatK [1] = biological target: T1, CatK (Homo sapiens, UniProt P43235); assay: CatK collagenase assay (type I collagen degradation, SDS-PAGE); type: biochemical
T1 construct: made in house; host or cells: Pichia pastoris
T1 sequence (P43235 115-329): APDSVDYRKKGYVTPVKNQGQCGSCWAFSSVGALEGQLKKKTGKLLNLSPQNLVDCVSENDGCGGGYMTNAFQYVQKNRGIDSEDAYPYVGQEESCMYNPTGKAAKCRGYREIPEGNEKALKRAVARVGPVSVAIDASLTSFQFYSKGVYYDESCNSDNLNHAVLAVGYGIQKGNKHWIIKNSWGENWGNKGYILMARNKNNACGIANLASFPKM
Experimental: The collagenase inhibitory activities of all identified compounds were measured using a collagen degradation assay. Soluble bovine type I collagen (0.6 mg/mL) was incubated with 400 nM recombinant human CatK, in the presence or absence of 200 nM chondroitin 4-sulfate (C4-S) in 100 mM sodium acetate buffer, pH 5.5, containing 2.5 mM dithiothreitol (DTT) (Sigma-Aldrich Canada, Oakville, Ontario, Canada) and 2.5 mM ethylenediametetraacetate (EDTA) (Sigma-Aldrich). In the experiments involving detergent to minimize inhibitor aggregation, 0.001% or 0.005% Triton X-100 was added to the buffer with the inhibitor. The recombinant human CatK was expressed in Pichia pastoris and purified as previously described. Selected compounds identified by molecular docking were ordered from the National Cancer Institute through the Developmental Therapeutics Program (Rockville, MD). All compounds were dissolved in DMSO as a 20 or […] stock. […] After incubation at 28°C for 4 hours, 1 μM of E-64 was added to block the residual activity of CatK.
(§1) Digestion with MMP-1 was performed in 50 mM Tris-HCl, pH 7.4, containing 200 mM NaCl and 5 mM CaCl2 at 28°C for 4 h. Reactions were stopped by adding 25 mM EDTA as previously described. Samples were analyzed using 10% SDS-PAGE gels and stained with Coomassie. The resulting bands of α-collagen chains were quantitatively assessed using ImageJ (Version 1.5) and IC50 graphs were plotted using GraphPad Prism (GraphPad Software, Version 5.0, La Jolla California USA).

CatK [2] = biological target: T1, CatK; assay: Z-Phe-Arg-MCA cleavage assay with CatK; type: biochemical; settings: 100 μM inhibitor, 5 nM CatK, 5 μM substrate, pH 5.5
Experimental: The enzymatic activity of CatK was monitored by measuring the rate of release of the fluorogenic group, amino-methyl coumarin at an excitation wavelength of 380 nm and an emission wavelength of 450 nm using a Molecular Devices SpectraMax Gemini spectrofluorometer. Inhibitors were added prior to measurement of enzyme activity. The assays were performed at 25°C at a fixed enzyme concentrations (5 nM) and substrate concentration (5 μM) in 100 mM sodium acetate buffer, pH 5.5, containing 2.5 mM DTT and 2.5 mM EDTA. Z-Phe-Arg-MCA hydrolysis with trypsin was carried out in 50 mM Tris-HCl, pH 8.8 at 10 nM enzyme concentration.

MMP-1 [3] = biological target: T2, MMP-1 (Homo sapiens, UniProt P03956); assay: Collagen digestion with MMP-1; type: biochemical; settings: 50 μM inhibitor, 400 nM MMP-1
T2 sequence (P03956 100-469): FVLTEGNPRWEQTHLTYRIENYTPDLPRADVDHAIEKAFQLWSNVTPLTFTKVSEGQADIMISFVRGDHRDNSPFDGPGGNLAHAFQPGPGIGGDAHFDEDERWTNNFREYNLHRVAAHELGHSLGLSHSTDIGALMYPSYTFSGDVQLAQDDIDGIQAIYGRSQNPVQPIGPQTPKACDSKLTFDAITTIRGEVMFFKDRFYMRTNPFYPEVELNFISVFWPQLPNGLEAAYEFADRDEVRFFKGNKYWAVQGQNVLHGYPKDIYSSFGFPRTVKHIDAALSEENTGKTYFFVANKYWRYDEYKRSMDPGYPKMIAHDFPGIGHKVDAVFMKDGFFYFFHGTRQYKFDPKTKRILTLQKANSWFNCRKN
Experimental: as §1

MMP-1 [4] = biological target: T2, MMP-1; assay: Gelatin degradation assay with MMP-1; type: biochemical; settings: 50 μM inhibitor, 10 nM MMP-1
Experimental: Gelatin (0.6 mg/mL) degradation assays were performed in the same manner as the collagen degradation experiments with 10 nM enzyme and were incubated at 37°C for one hour at the appropriate pH values for the individual proteases (CatK, pH 5.5; MMP-1, pH 7.4; trypsin, pH 8.8).

human osteoclasts [5] = assay: Human osteoclast bone resorption assay on bone slices; type: cell-based; settings: 1 μM inhibitor, 72 h, versus untreated
Experimental: (§2) Osteoclasts were generated from mononuclear cells isolated from human bone marrow tissue (Lonza, Walkersville, MD). The bone marrow cells were centrifuged at 400 g for 5 min and the pellet was re-suspended in 10 mL α-MEM (α-Minimal Essential Media) and layered on 10 ml Ficoll-Plaque media solution. After centrifugation at 500 g for 30 min, the white interface containing the monocytes was harvested and washed twice with α-MEM. Cells were cultured in α-MEM containing 10% FBS and 25 ng/mL M-CSF for 24 hours and then cultured in 25 ng/mL RANKL and 25 ng/mL M-CSF for 7 days. Differentiated osteoclasts (100,000 cells per slice) were then seeded on each bone slice (5.5 mm diameter and 0.4 mm thickness; self-made) in the presence or absence of inhibitors and incubated for 72 hours at 5% CO2 and 37°C with the DMSO concentration at 0.1%. The inhibitor concentration range tested varied between 50 nM to 3 μM.
(§3) To compare the effects of the compounds on cell survival, the metabolic activity of osteoclasts was determined using the CellTiter-Blue Viability Assay (Promega, Madison, WI, USA). Bone slices from each condition (inhibitor-treated and control groups) were fixed in 4% formaldehyde and subsequently stained for tartrate-resistant acid phosphatase (TRAcP) activity (Acid Phosphatase, Leukocyte (TRAP) Kit; Sigma-Aldrich). Aliquots from cell culture media were used to determine the CTx-I concentration (MyBiosource ELISA kit, San Diego, CA). CTx-I is a CatK-specific C-terminal cleavage product of triple helical type I collagen. The total number of osteoclasts per bone slice was determined after TRAcP staining. Cells with ≥2 nuclei were counted as osteoclasts. After 72 h, bone slices from each condition were incubated in filtered water for cell lysis and cells were removed using a cotton stick. Subsequently the resorption cavities were stained with toluidine blue and observed by light microscopy. The number of resorption events and eroded bone surface area were determined as previously described. All light microscopic analyses were performed using a Nikon Eclipse LV100 microscope and a Nikon Eclipse Ci microscope.

human osteoclasts [6] = assay: Osteoclast survival: CellTiter-Blue metabolic activity and osteoclast count after TRAcP staining; type: cell-based; settings: compared with untreated cells
Experimental: as §2, §3

quinone oxidoreductase = test system: quinone oxidoreductase; design: method as in PMID 21859103; settings: cited from earlier work

Compound: CN(C)CCCNc1ccc2ncn3c4ccccc4c(=O)c1c23 [compound 3, 5-(3-(dimethylamino)propylamino)-6H-imidazo[4,5,1-de]acridin-6-one]
- IC50 (CatK [1]; 400 nM CatK, soluble bovine type I collagen 0.6 mg/mL, pH 5.5, 28°C, 4 h, read-out: Collagenase IC50): < 20 µM and 4.9 µM and ~5 µM
- IC50 (CatK [1]; Collagenase IC50 with 0.005% Triton X-100, in the presence of detergent, 0.005% Triton X-100): 5.2 ± 1.5 µM
- Collagenase IC50 with 0.005% Triton X-100 (CatK [1]; in the presence of detergent, 0.005% Triton X-100): not significantly different
- inhibition at 100 µM (CatK [2]): 5 ± 2.7%
- inhibitory activity towards the collagenase activity of MMP-1 (MMP-1 [3]): no inhibitory activity; also recorded: did not show inhibition
- inhibitory activity for the gelatinase activity of MMP-1 (MMP-1 [4]): no inhibitory activity; also recorded: did not show inhibition
- Number of trenches (human osteoclasts [5]): significant reduction; also recorded: significantly reduced
- percentage of eroded surface area / total eroded surface (human osteoclasts [5]): significant reduction; also recorded: significantly reduced
- Metabolic activity of osteoclasts (human osteoclasts [6]; CellTiter-Blue): no significant differences
- number of osteoclasts (human osteoclasts [6]; TRAcP staining): no significant differences
- activity in an inhibitor screen of a quinone oxidoreductase (quinone oxidoreductase): active
